Measurements from US20090198145A1, “COMPOSITIONS, METHODS, AND SYSTEMS FOR RAPID INDUCTION AND MAINTENANCE OF […] SLEEP” (priority 2008, published 2009).

Key:
[1] = system: patient with chronic depression and post-traumatic stress disorder
surgical patients = details: over 80 patients; GABA-A agonist (e.g., propofol) and adjunctive medications
From the text: This invention describes the discoveries that control, monitor, and administer the hypnotic or sedative agent such as a GABA-A agonist (e.g., propofol) and adjunctive medications at designed dosages, timing, and modes of administration to produce dreams and an unique sleep state of un-fragmented Continuous REM Sleep.

rats = details: intravenous, over a 6 hour period; cited from earlier work
[2] = Patient A, same regimen, follow-up

CC(C)c1cccc(C(C)C)c1O [propofol, 2-6 diisopropylphenol]
patient-reported sleep recovery after the procedure ([1]; Patient A, same regimen, Continuous REM Sleep of approximately 1 hour): felt extremely rested | duration of improved ease of sleeping post-operatively [1, 2]: three | nightmares on follow-up [1, 2]: lack of nightmares | dreaming reported during the procedure ([1]; human, in vivo): profuse dreaming about gardening | achievement of Continuous REM Sleep (surgical patients): achieved Continuous REM Sleep | replication of natural sleep cycle (rats): replicate a natural sleep cycle
